Data taken from patent US12599575B2, “Antimicrobial adjuvant containing biphenyl derivative compound as active ingredient, and uses thereof” (KOREA RESEARCH INSTITUTE OF BIOSCIENCE AND BIOTECHNOLOGY, priority 2021, dated 2026).
Entries after “also recorded” stand apart in the source; their conditions may differ.

Tested on: Acinetobacter baumannii colistin resistance 357 (R357 strains)
Type: cell-based

Row | Molecule | cell growth inhibitory effect (respiration rate), PMB alone (PMB 16 μg/mL alone) | cell growth inhibitory effect (respiration rate), PA108 alone (PA108 5 μM alone) | bacterial growth inhibitory effect (relative respiration rate) in combination with PMB (compound 5 μM + PMB 16 μg/mL, 37° C., 24 hours)
1 | polymyxin B [PMB, reference compound] | no cell growth inhibitory effect |  | 
2 | Cc1cc([N+](=O)[O-])cc(-c2ccc(Cl)cc2)c1O [PA108] |  | no self cell growth inhibitory effect | an activity to improve bacterial susceptibility to a polymyxin-based antibiotic; also recorded: cellular respiration was effectively inhibited
